Measurements: ChEMBL document CHEMBL4483862, “Open-source discovery of chemical leads for next-generation chemoprotective antimalarials” (2018)

Tested on: Plasmodium berghei
Assay: Luciferase/luciferin-expressing antifolate-resistant parasites were used to infect a culture of HepG2 cells that were pre-incubated with compounds. Infected hepatocytes emit light due to the luciferase reaction. Assay results are presented as the percent inhibition of light emission compared to control. […]
Format: functional
Conditions: sporozoite; for IC90: read-out: LUCIFERASE INFECTION ASSAY - IC90

SMILES | IC90 [µM] | other results
Cc1ccc(-c2cnn3c(N4CCOCC4)cc(C)nc23)cc1 | > 10.7 | IC50 (PBLUC_HILL_SLOPE 2.15, PBLUC_R_SQUARED 0.469, read-out: LUCIFERASE INFECTION ASSAY - IC50): 5.44 µM
Clc1cccc(CNc2nnnn2-c2ccccc2)c1 | > 10 | IC50 (PBLUC_HILL_SLOPE 2.12, PBLUC_R_SQUARED 0.274, read-out: LUCIFERASE INFECTION ASSAY - IC50): 8.09 µM
CN1N=C2c3ccccc3CCC2C1c1ccc(Cl)cc1 (stereo not given) | 4 | IC50 (PBLUC_HILL_SLOPE 2.13, PBLUC_R_SQUARED 0.455, read-out: LUCIFERASE INFECTION ASSAY - IC50): 1.42 µM
CC1CCN(S(=O)(=O)c2ccc(C(=O)Nc3ncccc3O)cc2)CC1 | > 10 | IC50 (PBLUC_HILL_SLOPE 2.15, PBLUC_R_SQUARED 0.503, read-out: LUCIFERASE INFECTION ASSAY - IC50): 4.81 µM
O=C(NC1CCN(c2nccc(C(F)(F)F)n2)CC1)c1cccs1 | 4.85 | IC50 (PBLUC_HILL_SLOPE 2.13, PBLUC_R_SQUARED 0.731, read-out: LUCIFERASE INFECTION ASSAY - IC50): 1.72 µM
Cc1cccnc1NC(=O)c1ccc(Cl)c(S(=O)(=O)N(Cc2ccccc2)c2ccccc2)c1 | > 10 | IC50 (PBLUC_HILL_SLOPE 2.12, PBLUC_R_SQUARED 0.451, read-out: LUCIFERASE INFECTION ASSAY - IC50): 5.79 µM
N#C/C(=C\c1cccc([N+](=O)[O-])c1)c1nn(-c2ccccc2)c(-n2cccc2)c1C#N | > 8.12 | IC50 (PBLUC_HILL_SLOPE 2.16, PBLUC_R_SQUARED 0.645, read-out: LUCIFERASE INFECTION ASSAY - IC50): 5.63 µM
COc1cccc(/C=C/C(=O)NC2CCCc3ccccc32)c1OC(F)F (stereo not given) | > 10 | IC50 (PBLUC_HILL_SLOPE 2.15, PBLUC_R_SQUARED 0.14, read-out: LUCIFERASE INFECTION ASSAY - IC50): > 10 µM
CCOc1cc2ccccc2cc1C(=O)NOCc1ccccc1 | > 10 | IC50 (PBLUC_HILL_SLOPE 2.14, PBLUC_R_SQUARED 0.146, read-out: LUCIFERASE INFECTION ASSAY - IC50): > 10 µM
CCC(=O)Nc1nc2ccc(NC(=O)c3cc(OC)cc(OC)c3)cc2s1 | > 8.56 | IC50 (PBLUC_HILL_SLOPE 2.13, PBLUC_R_SQUARED 0.461, read-out: LUCIFERASE INFECTION ASSAY - IC50): 5.13 µM
CN1CCN(c2ccc(-c3cn4c(-c5cccc(N(C)C)c5)cnc4cn3)cn2)CC1 | > 7.98 | IC50 (PBLUC_HILL_SLOPE 2.11, PBLUC_R_SQUARED 0.385, read-out: LUCIFERASE INFECTION ASSAY - IC50): 6.15 µM
CSc1cnc(-n2c(-c3ccc(C)cc3)cs/c2=N\C(=O)c2ccccc2)nc1 | > 10 | IC50 (PBLUC_HILL_SLOPE 2.11, PBLUC_R_SQUARED 0.145, read-out: LUCIFERASE INFECTION ASSAY - IC50): > 10 µM
Cc1ccc(Nc2nnc(SC(C)C(=O)NC(C)c3ccc(F)cc3)s2)cc1 (stereo not given) | > 10 | IC50 (PBLUC_HILL_SLOPE 2.15, PBLUC_R_SQUARED 0.495, read-out: LUCIFERASE INFECTION ASSAY - IC50): 4.9 µM
Cc1csc(C(C#N)C(=O)CSc2nnc(Nc3ccc(OC(F)(F)F)cc3)s2)n1 (stereo not given) | > 10 | IC50 (PBLUC_HILL_SLOPE 2.13, PBLUC_R_SQUARED 0.0111, read-out: LUCIFERASE INFECTION ASSAY - IC50): 7.36 µM
Cc1cc(Cl)ccc1OCC(=O)c1c(-c2ccccc2)[nH]c2ccccc12 | > 10 | IC50 (PBLUC_HILL_SLOPE 2.14, 2.22, PBLUC_R_SQUARED 0.753, 0.563, read-out: LUCIFERASE INFECTION ASSAY - IC50): 6.03 µM
O=S(=O)(c1ccc2ccccc2c1)N1CCCC1c1nnc2ccccn12 (stereo not given) | 5.59 | IC50 (PBLUC_HILL_SLOPE 2.1, PBLUC_R_SQUARED 0.614, read-out: LUCIFERASE INFECTION ASSAY - IC50): 1.96 µM
COc1cc(-c2nc3ccc(NC(=O)c4cccs4)cn3n2)cc(OC)c1OC | 6.23 | IC50 (PBLUC_HILL_SLOPE 2.1, PBLUC_R_SQUARED 0.836, read-out: LUCIFERASE INFECTION ASSAY - IC50): 2.19 µM
O=C(COC(=O)c1cn(-c2ccccc2)nc1-c1ccccc1)Nc1ccc(Cl)c(S(=O)(=O)N2CCOCC2)c1 | > 10 | IC50 (PBLUC_HILL_SLOPE 2.11, PBLUC_R_SQUARED 0.445, read-out: LUCIFERASE INFECTION ASSAY - IC50): 5.37 µM
O=c1nc(Nc2ccc(SC(F)(F)F)cc2)c2ccccc2o1 | 0.441 | IC50 (PBLUC_HILL_SLOPE 2.14, PBLUC_R_SQUARED 0.975, read-out: LUCIFERASE INFECTION ASSAY - IC50): 0.158 µM
O=C(Nc1cccc2c[nH]nc12)c1cnc(OCC(F)(F)F)c(Cl)c1 | 5.53 | IC50 (PBLUC_HILL_SLOPE 2.15, PBLUC_R_SQUARED 0.641, read-out: LUCIFERASE INFECTION ASSAY - IC50): 1.99 µM

SMILES | IC90 [µM] | other results
CSc1ncc(C(=O)OCc2cc(F)cc3c2OCOC3)n1-c1ccc(F)cc1 | > 10 | IC50 (PBLUC_HILL_SLOPE 2.14, PBLUC_R_SQUARED 0.0712, read-out: LUCIFERASE INFECTION ASSAY - IC50): 5.17 µM
CN(C)c1nc(N)nc(/C(C#N)=C/c2ccc(N(c3ccccc3)c3ccccc3)cc2)n1 | > 10 | IC50 (PBLUC_HILL_SLOPE 2.12, PBLUC_R_SQUARED 0.0159, read-out: LUCIFERASE INFECTION ASSAY - IC50): 7.93 µM
CC(=O)c1c(C)[nH]c(-c2csc(-c3ccc(C)cc3C)n2)c1C | 5.96 | IC50 (PBLUC_HILL_SLOPE 2.12, PBLUC_R_SQUARED 0.351, read-out: LUCIFERASE INFECTION ASSAY - IC50): 2.12 µM
COc1cc(CNCc2ccc3c(c2)OCO3)ccc1OCc1ccc(F)cc1 | > 8.35 | IC50 (PBLUC_HILL_SLOPE 2.11, PBLUC_R_SQUARED 0.727, read-out: LUCIFERASE INFECTION ASSAY - IC50): 5.34 µM
CCC1(CC)CC(=O)N(CC(O)COc2ccc(C(C)(C)C)cc2)C1=O (stereo not given) | > 10 | IC50 (PBLUC_HILL_SLOPE 2.11, PBLUC_R_SQUARED 0.442, read-out: LUCIFERASE INFECTION ASSAY - IC50): 5.07 µM
C=CCNC(=S)N1CCc2sccc2C1c1ccc(Cl)cc1 (stereo not given) | > 9.46 | IC50 (PBLUC_HILL_SLOPE 2.11, PBLUC_R_SQUARED 0.465, read-out: LUCIFERASE INFECTION ASSAY - IC50): 4.12 µM
COc1ccc(CCNC(=O)c2ccccc2NC(=O)c2cc(OC)c(OC)c(OC)c2)cc1OC | > 6.67 | IC50 (PBLUC_HILL_SLOPE 2.16, PBLUC_R_SQUARED 0.652, read-out: LUCIFERASE INFECTION ASSAY - IC50): 3.54 µM
COc1ccc(-c2cnc3cnc(-c4cccnc4)cn23)cc1 | 4.75 | IC50 (PBLUC_HILL_SLOPE 2.13, PBLUC_R_SQUARED 0.733, read-out: LUCIFERASE INFECTION ASSAY - IC50): 1.7 µM
CC(C)c1ccc(-c2nnc(NC(=O)CNC(=O)c3cccc(S(=O)(=O)N(C)C)c3)s2)cc1 | > 10 | IC50 (PBLUC_HILL_SLOPE 2.11, PBLUC_R_SQUARED 0.538, read-out: LUCIFERASE INFECTION ASSAY - IC50): 5.39 µM
COc1ccc(C2CCCN2Cc2cc(=O)oc3cc(C)c(Cl)cc23)c(OC)c1 (stereo not given) | > 10 | IC50 (PBLUC_HILL_SLOPE 2.17, PBLUC_R_SQUARED 0.455, read-out: LUCIFERASE INFECTION ASSAY - IC50): 6.43 µM
O=C(COc1ccc2[nH]c3ccccc3c(=O)c2c1)N1CCN(c2ccc(F)cc2)CC1 | 7.49 | IC50 (PBLUC_HILL_SLOPE 2.14, PBLUC_R_SQUARED 0.725, read-out: LUCIFERASE INFECTION ASSAY - IC50): 2.68 µM
Cc1ccc(N(Cc2ccccc2)S(=O)(=O)c2ccc(S(C)(=O)=O)cc2)cc1 | > 10 | IC50 (PBLUC_HILL_SLOPE 2.12, PBLUC_R_SQUARED 0.413, read-out: LUCIFERASE INFECTION ASSAY - IC50): 5.72 µM
CCCc1cc(NCc2ccccn2)n2ncc(-c3ccccc3)c2n1 | > 9.61 | IC50 (PBLUC_HILL_SLOPE 2.13, PBLUC_R_SQUARED 0.117, read-out: LUCIFERASE INFECTION ASSAY - IC50): 5.6 µM
Cc1ccc(-c2nn(-c3ccccc3)cc2/C=C/C(=O)NCc2ccc(-n3ccnc3)nc2)cc1 | > 10 | IC50 (PBLUC_HILL_SLOPE 2.1, PBLUC_R_SQUARED 0.668, read-out: LUCIFERASE INFECTION ASSAY - IC50): 5.12 µM
O=C1CCc2cc(-c3csc(NC(=O)c4ccc(-n5cnc6ccccc65)cc4)n3)ccc2N1 | 3.68 | IC50 (PBLUC_HILL_SLOPE 2.11, 11.5, PBLUC_R_SQUARED 0.409, 0.367, read-out: LUCIFERASE INFECTION ASSAY - IC50): 3.63 µM
CC1CCc2c(sc3nc(Sc4nnnn4-c4ccccc4)nc(N)c23)C1 (stereo not given) | > 10 | IC50 (PBLUC_HILL_SLOPE 2.12, PBLUC_R_SQUARED 0.375, read-out: LUCIFERASE INFECTION ASSAY - IC50): 3.69 µM
CC1CCC(NC(=O)[C@H](Cc2ccccc2)NC(=O)C(c2ccccc2)c2ccccc2)CC1 (stereo not given in full) | > 10 | IC50 (PBLUC_HILL_SLOPE 2.1, PBLUC_R_SQUARED 0.545, read-out: LUCIFERASE INFECTION ASSAY - IC50): 4.82 µM
CC(=O)N1CCc2cc(NC(=O)c3cc(C)n(C4CCCCC4)c3C)ccc21 | 0.349 | IC50 (PBLUC_HILL_SLOPE 2.13, PBLUC_R_SQUARED 0.772, read-out: LUCIFERASE INFECTION ASSAY - IC50): 0.125 µM
O=C(Nc1ccc(Oc2ccc(OC(F)(F)F)cc2)cc1)C1CC1 | 1.54 | IC50 (PBLUC_HILL_SLOPE 2.12, PBLUC_R_SQUARED 0.759, read-out: LUCIFERASE INFECTION ASSAY - IC50): 0.548 µM
O=C(Nc1ccc(N2CCN(c3ncccc3C(F)(F)F)CC2)nc1)c1cccs1 | 0.867 | IC50 (PBLUC_HILL_SLOPE 2.12, PBLUC_R_SQUARED 0.656, read-out: LUCIFERASE INFECTION ASSAY - IC50): 0.307 µM
